In experiment [1] the target is T1, Ubiquitin-conjugating enzyme E2 N (Homo sapiens, UniProt P61088).
T1 sequence (P61088 whole entry): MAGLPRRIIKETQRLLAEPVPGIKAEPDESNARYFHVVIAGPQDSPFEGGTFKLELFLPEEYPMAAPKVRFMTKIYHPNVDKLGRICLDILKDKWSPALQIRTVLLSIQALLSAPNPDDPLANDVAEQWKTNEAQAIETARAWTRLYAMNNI
It is filed as functional.

Experiment [2] addresses T2, Orexin/Hypocretin receptor type 1 (Homo sapiens, UniProt O43613).
T2 sequence (O43613 whole entry): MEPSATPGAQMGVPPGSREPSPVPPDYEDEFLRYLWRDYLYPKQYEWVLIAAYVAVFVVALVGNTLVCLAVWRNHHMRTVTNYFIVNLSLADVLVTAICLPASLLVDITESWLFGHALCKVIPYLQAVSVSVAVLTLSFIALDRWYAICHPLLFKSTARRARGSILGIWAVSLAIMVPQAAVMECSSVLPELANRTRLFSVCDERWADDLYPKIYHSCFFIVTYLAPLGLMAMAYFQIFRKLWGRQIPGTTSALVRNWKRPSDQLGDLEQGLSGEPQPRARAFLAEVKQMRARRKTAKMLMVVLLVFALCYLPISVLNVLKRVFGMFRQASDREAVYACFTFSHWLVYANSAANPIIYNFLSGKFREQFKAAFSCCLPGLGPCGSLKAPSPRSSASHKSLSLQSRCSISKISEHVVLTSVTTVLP
The experiment is described as follows: Fluorescence-based cell-based high throughput dose response assay for antagonists of the orexin 1 receptor (OX1R; HCRTR1). [Related pubchem assays (depositor defined):AID434989, AID435008, AID463079, AID485270, AID492963, AID492964, AID492965, AID493232, AID504717, AID504718]. It is filed as functional.

Experiment [3] concerns the target SUMO-activating enzyme (Homo sapiens, UniProt Q9UBT2). Kind of experiment: SUMOylation inhibitor hit validation, confirmation, SUMOylation inhibitor project, biochemical, AlphaScreen (AID 2018). It is filed as functional.
Experiment [4] concerns Escherichia coli. The experiment is described as follows: microbe, parasite or virus in culture.
Experiment [5] is described as follows: cells. It is filed as functional, cell-based.
Experiment [6] in a line: cytotoxicity in HEK-293T cells, dose response, cytotoxicity control for TCR NF-kB inhibitor project, luminescence, T-cell screen hits (AID 489026).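 Further: cells exposed to compound about 14 hours before the viability readout.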 It is filed as functional, cell-based.
The subject of experiment [7] is Vero. Kind of experiment: cells. It is filed as functional. The following applies: Chlorocebus sabaeus.
In experiment [8] the target is ATP-dependent molecular chaperone HSP82 (Candida albicans (strain WO-1) (Yeast), UniProt C4YTQ8). Kind of experiment: loss of DOC-induced GRE-beta-galactosidase reporter signal, dose response, Hsp90 inhibitor project, S. cerevisiae, luminescence (AID 2400).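 Further: beta-galactosidase luminescence from glucocorticoid response element reporter as proxy for Hsp90 function; inhibitor potency where signal loss means Hsp90 inhibition.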 It is filed as functional, cell-based.
Experiment [9] concerns the target T3, Aminopeptidase N (Plasmodium falciparum FcB1/Columbia, UniProt O96935).
T3 sequence (O96935 whole entry): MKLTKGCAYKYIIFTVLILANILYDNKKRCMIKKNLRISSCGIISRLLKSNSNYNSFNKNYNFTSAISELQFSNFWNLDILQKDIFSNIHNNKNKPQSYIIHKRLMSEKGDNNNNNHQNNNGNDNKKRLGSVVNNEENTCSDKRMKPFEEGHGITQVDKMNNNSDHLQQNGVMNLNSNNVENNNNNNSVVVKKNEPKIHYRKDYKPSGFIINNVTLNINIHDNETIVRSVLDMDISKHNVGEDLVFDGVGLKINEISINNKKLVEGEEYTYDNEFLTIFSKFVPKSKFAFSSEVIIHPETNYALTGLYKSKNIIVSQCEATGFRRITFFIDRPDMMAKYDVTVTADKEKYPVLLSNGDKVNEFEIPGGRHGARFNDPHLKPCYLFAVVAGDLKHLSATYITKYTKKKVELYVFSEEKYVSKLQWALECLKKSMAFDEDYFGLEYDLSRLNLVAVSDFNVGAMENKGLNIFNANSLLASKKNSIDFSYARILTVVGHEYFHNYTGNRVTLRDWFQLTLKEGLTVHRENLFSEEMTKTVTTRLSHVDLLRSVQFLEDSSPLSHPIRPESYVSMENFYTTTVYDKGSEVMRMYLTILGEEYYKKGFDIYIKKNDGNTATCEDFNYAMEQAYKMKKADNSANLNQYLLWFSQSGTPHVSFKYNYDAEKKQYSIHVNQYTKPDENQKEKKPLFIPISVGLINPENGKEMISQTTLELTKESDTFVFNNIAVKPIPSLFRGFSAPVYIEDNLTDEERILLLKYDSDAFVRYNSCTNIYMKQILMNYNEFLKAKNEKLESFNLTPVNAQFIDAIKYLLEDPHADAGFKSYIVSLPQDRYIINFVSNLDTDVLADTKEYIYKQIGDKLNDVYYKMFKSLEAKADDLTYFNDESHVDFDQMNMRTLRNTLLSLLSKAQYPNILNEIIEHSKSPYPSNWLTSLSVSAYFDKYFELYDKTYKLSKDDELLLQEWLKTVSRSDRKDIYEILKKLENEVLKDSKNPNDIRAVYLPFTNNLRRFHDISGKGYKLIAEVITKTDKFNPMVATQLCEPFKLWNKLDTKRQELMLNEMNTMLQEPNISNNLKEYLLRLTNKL
The experiment is described as follows: P. falciparum M1AAP inhibitors, biochemical, fluorogenic H-Leu-NHMec substrate, 1536-well (AID 1445). Also noted: species or system Plasmodium falciparum 3D7, 3D7.

Experiment [10] addresses T4, Neuropeptide Y receptor type 2 (Homo sapiens, UniProt P49146).
T4 sequence (P49146 whole entry): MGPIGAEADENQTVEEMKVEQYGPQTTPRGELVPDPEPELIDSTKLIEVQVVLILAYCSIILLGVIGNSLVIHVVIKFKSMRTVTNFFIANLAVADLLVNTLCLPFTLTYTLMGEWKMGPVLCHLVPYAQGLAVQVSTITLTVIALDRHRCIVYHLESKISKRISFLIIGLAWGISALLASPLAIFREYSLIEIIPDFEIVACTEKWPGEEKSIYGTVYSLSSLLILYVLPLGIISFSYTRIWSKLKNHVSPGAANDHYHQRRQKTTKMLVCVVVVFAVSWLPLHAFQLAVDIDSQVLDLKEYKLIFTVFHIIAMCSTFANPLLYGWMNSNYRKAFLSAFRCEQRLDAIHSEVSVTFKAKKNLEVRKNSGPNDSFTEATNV
Kind of experiment: Fluorescence-based cell-based high-throughput dose response assay for agonists of NPY-Y2. [Related pubchem assays: 1703 (Screening assay (CNGC inhibitors).), 1359 (Screening assay (NPY-Y2 potentiators or agonists).), 1304 (Screening assay (NPY-Y1 potentiators or agonists).), 1710 (Screening assay (NPY-Y2 agonists).), 1791 (Summary AID.)]. It counts as functional.

Experiment [11] in a line: HIV-1 Env-mediated cell fusion inhibitors, dose response, CCR5-tropic Env (AID 2279). It counts as functional.
The target of experiment [12] is Small ubiquitin-related modifier 1 (Homo sapiens, UniProt P63165). Kind of experiment: inhibitors of SUMO1 peptide binding, dose response, biochemical, fluorescence polarization, uHTS hits (AID 624382). It is filed as functional. As to conditions: read-out: IC50_Mean.
The nature of experiment [13]: Concentration-dependent survival of SW480 colon cancer line, luminescence detection with CellTiter-Glo, half-maximal inhibitory concentration (AID 1117338). It is filed as functional.

The source made the active and inactive calls.

Chain of ATP-dependent molecular chaperone HSP82 (C4YTQ8 whole entry): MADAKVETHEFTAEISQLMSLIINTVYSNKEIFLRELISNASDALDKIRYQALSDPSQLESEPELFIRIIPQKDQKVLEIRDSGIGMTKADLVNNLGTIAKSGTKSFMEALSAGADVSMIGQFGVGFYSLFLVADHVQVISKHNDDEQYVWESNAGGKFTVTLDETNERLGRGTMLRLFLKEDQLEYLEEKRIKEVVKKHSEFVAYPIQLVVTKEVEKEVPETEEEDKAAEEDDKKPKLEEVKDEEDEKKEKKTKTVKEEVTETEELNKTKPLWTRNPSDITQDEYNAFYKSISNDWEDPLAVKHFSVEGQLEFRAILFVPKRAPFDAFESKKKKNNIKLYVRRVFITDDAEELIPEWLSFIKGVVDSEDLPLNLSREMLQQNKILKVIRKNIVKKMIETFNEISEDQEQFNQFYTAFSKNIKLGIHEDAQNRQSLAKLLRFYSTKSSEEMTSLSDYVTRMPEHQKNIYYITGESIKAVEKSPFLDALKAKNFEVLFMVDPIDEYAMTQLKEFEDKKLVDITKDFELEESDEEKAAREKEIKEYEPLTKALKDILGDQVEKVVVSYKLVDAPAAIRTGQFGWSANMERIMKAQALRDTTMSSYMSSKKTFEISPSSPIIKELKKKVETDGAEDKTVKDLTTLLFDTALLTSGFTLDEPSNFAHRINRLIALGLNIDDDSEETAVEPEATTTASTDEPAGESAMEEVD
Chain of SUMO-activating enzyme (Q9UBE0 whole entry): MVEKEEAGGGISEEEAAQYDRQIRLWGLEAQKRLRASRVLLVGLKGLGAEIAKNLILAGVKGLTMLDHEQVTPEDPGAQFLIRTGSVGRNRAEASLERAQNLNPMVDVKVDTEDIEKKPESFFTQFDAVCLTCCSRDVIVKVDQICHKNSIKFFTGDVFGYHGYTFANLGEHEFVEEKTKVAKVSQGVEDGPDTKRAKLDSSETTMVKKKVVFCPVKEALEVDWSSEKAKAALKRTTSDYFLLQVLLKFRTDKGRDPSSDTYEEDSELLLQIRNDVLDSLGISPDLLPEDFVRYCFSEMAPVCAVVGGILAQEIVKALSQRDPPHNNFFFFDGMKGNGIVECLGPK
Chain of SUMO-activating enzyme (Q9UBT2 whole entry): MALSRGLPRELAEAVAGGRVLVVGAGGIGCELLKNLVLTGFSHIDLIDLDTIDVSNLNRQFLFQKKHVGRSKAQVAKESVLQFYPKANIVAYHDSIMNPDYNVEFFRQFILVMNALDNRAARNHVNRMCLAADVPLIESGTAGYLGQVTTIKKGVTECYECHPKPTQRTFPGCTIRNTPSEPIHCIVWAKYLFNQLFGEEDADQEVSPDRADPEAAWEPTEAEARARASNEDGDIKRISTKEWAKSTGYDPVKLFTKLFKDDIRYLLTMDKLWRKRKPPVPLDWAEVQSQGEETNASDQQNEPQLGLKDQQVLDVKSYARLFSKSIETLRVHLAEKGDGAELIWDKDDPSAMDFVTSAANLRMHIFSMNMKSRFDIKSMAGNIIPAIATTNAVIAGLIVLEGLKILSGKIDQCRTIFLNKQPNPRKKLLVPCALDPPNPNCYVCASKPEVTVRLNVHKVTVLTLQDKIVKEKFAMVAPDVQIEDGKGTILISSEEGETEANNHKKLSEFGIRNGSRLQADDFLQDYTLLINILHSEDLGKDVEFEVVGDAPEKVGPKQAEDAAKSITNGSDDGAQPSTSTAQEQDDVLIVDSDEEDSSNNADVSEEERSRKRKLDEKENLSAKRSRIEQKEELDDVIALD
Chain of Small ubiquitin-related modifier 1 (P63165 whole entry): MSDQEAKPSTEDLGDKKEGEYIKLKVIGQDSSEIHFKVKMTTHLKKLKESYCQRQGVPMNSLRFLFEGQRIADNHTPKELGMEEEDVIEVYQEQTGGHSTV

As for `Oc1ccc(NC(=S)N=Nc2c(O)[nH]c3ccccc23)cc1`, the figures for the IC50 in experiment [1] and in experiment [2] were 0.763 µM (active) and 43.6 µM (inactive), respectively.

For the compound `N#Cc1c(N2CCCCC2)nc(N)c2c(N)nc(SCC(=O)O)cc12`, in experiment [3], the IC50 was 0.86 µM (active).

`O=[N+]([O-])c1ccc(Sc2cccc[n+]2[O-])c2nonc12`: in [4], the AC50 is 8.5 µM (active).

With `CCCC(=O)NC(c1ccc(C(C)C)cc1)c1ccc2cccnc2c1O` (stereo not drawn), the EC50 in experiment [5] was > 350 µM (not active); in [8], > 160 µM (inactive). Further, in experiment [6], the IC50 was > 80 µM (inactive). In experiment [7], the CC50 is 2.88 µM (active).

For the compound `Oc1c(Cl)cc(Cl)c(Cl)c1Cc1c(O)c(Cl)cc(Cl)c1Cl` [HEXACHLOROPHENE], the IC50 was 58 µM (active) in experiment [9], 0.97 µM (active) in experiment [11], 5.63 µM (active) in [12] and 0.003 µM (active) in experiment [13]. Besides, the EC50 in experiment [10] is listed as > 11.8 µM (not active).

The record behind these values is ChEMBL document CHEMBL1201862, “PubChem BioAssay data set” (2004).
